From the NIST ThermoML archive (doi:10.1016/j.jct.2011.12.008)

Test: xn = mol fraction of the nth substance listed
Conditions: 101 kPa, Liquid; for viscosity: Capillary tube (Ostwald / Ubbelohde) method; for mass density: Vibrating tube method

NCCCO [3-amino-1-propanol] + CCCCCCn1cc[n+](C)c1.F[B-](F)(F)F
Conditions	mass density [kg/m3]	viscosity [mPa·s]
293.15 K, x2 = 0	987.55	39.29
293.15 K, x2 = 0.0536	1010.87	39.35
293.15 K, x2 = 0.0969	1026.17	42.89
293.15 K, x2 = 0.202	1055.57	49.26
293.15 K, x2 = 0.3217	1080.32	56.99
293.15 K, x2 = 0.4942	1105.94	77.82
293.15 K, x2 = 0.6135	1118.92	97.27
293.15 K, x2 = 0.7276	1129.17	125.01
293.15 K, x2 = 0.8343	1137.49	163.87
293.15 K, x2 = 0.9204	1143.7	192.2
298.15 K, x2 = 0	983.55	30.43
298.15 K, x2 = 0.0536	1006.96	30.8
298.15 K, x2 = 0.0969	1022.3	33.2
298.15 K, x2 = 0.202	1051.74	37.85
298.15 K, x2 = 0.3217	1076.53	44.61
298.15 K, x2 = 0.4942	1102.24	59.65
298.15 K, x2 = 0.6135	1115.24	74.53
298.15 K, x2 = 0.7276	1125.66	95.2
298.15 K, x2 = 0.8343	1134.08	123.47
298.15 K, x2 = 0.9204	1140.23	148.27
303.15 K, x2 = 0	979.53	23.87
303.15 K, x2 = 0.0536	1003.04	24.16
303.15 K, x2 = 0.0969	1018.41	26.02
303.15 K, x2 = 0.202	1047.91	29.45
303.15 K, x2 = 0.3217	1072.75	34.55
303.15 K, x2 = 0.4942	1098.55	46.03
303.15 K, x2 = 0.6135	1111.63	57.96
303.15 K, x2 = 0.7276	1122.11	73.65
303.15 K, x2 = 0.8343	1130.63	95.84
303.15 K, x2 = 0.9204	1136.88	115.79
308.15 K, x2 = 0	975.51	19.07
308.15 K, x2 = 0.0536	999.11	19.14
308.15 K, x2 = 0.0969	1014.5	20.58
308.15 K, x2 = 0.202	1044.05	23.41
308.15 K, x2 = 0.3217	1068.95	27.53
308.15 K, x2 = 0.4942	1094.86	36.45
308.15 K, x2 = 0.6135	1108.04	45.81
308.15 K, x2 = 0.7276	1118.58	58.09
308.15 K, x2 = 0.8343	1127.18	75.38
308.15 K, x2 = 0.9204	1133.5	91.04
313.15 K, x2 = 0	971.47	15.27
313.15 K, x2 = 0.0536	995.18	15.64
313.15 K, x2 = 0.0969	1010.6	16.63
313.15 K, x2 = 0.202	1040.2	18.74
313.15 K, x2 = 0.3217	1065.16	22.05
313.15 K, x2 = 0.4942	1091.16	29.14
313.15 K, x2 = 0.6135	1104.43	36.47
313.15 K, x2 = 0.7276	1115.05	46.32
313.15 K, x2 = 0.8343	1123.73	59.62
313.15 K, x2 = 0.9204	1130.12	71.6
318.15 K, x2 = 0	967.43	12.35
318.15 K, x2 = 0.0536	991.28	12.68
318.15 K, x2 = 0.0969	1006.67	13.6
318.15 K, x2 = 0.202	1036.34	15.76
318.15 K, x2 = 0.3217	1061.36	18.42
318.15 K, x2 = 0.4942	1087.47	23.9
318.15 K, x2 = 0.6135	1100.82	28.64
318.15 K, x2 = 0.7276	1111.54	37.85
318.15 K, x2 = 0.8343	1120.28	48.22
318.15 K, x2 = 0.9204	1126.73	58.5
323.15 K, x2 = 0	963.37	10.22
323.15 K, x2 = 0.0536	987.32	10.61
323.15 K, x2 = 0.0969	1002.75	11.16
323.15 K, x2 = 0.202	1032.48	12.61
323.15 K, x2 = 0.3217	1057.55	15.89
323.15 K, x2 = 0.4942	1083.77	19.73
323.15 K, x2 = 0.6135	1097.21	24.2
323.15 K, x2 = 0.7276	1108.02	31.19
323.15 K, x2 = 0.8343	1116.83	39.61
323.15 K, x2 = 0.9204	1123.36	47.9
328.15 K, x2 = 0	959.3	8.535
328.15 K, x2 = 0.0536	983.35	8.7
328.15 K, x2 = 0.0969	998.8	9.325
328.15 K, x2 = 0.202	1028.62	10.96
328.15 K, x2 = 0.3217	1053.76	13.04
328.15 K, x2 = 0.4942	1080.08	16.58
328.15 K, x2 = 0.6135	1093.61	19.92
328.15 K, x2 = 0.7276	1104.51	26.05
328.15 K, x2 = 0.8343	1113.4	33.11
328.15 K, x2 = 0.9204	1119.94	41.26
333.15 K, x2 = 0	955.22	7.123
333.15 K, x2 = 0.0536	979.37	7.144
333.15 K, x2 = 0.0969	994.86	7.836
333.15 K, x2 = 0.202	1024.75	8.918
333.15 K, x2 = 0.3217	1049.98	10.47
333.15 K, x2 = 0.4942	1076.4	13.86
333.15 K, x2 = 0.6135	1090.05	17.14
333.15 K, x2 = 0.7276	1101.02	21.81
333.15 K, x2 = 0.8343	1109.97	27.5
333.15 K, x2 = 0.9204	1116.55	37.45
338.15 K, x2 = 0	951.14	6.045
338.15 K, x2 = 0.0536	975.37	6.221
338.15 K, x2 = 0.0969	990.91	6.676
338.15 K, x2 = 0.202	1020.88	7.634
338.15 K, x2 = 0.3217	1046.21	9.153
338.15 K, x2 = 0.4942	1072.72	11.94
338.15 K, x2 = 0.6135	1086.5	14.71
338.15 K, x2 = 0.7276	1097.55	18.64
338.15 K, x2 = 0.8343	1106.57	23.24
338.15 K, x2 = 0.9204	1113.17	32.09
